Test results from PubChem BioAssay (NCI).
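Assay format: 96-well plates, 48-hour exposure. The concentration for full growth arrest is given as TGI.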

What follows are compounds tested on COLO 205 colon (assay: growth of human tumour cells (NCI), 48 h).

Row | Structure (SMILES) | TGI
1 | OCC(O)C(Cl)CCl (stereo not drawn) | > 100 µM
2 | O=C1NCc2ccccc2S(=O)(=O)n2cccc21 | > 100 µM
3 | O=C(/C=C/c1ccccc1)NNC(=O)c1c(Cl)c(Cl)c(Cl)c(Cl)c1-c1nc2ccccc2[nH]1 | 33.2 µM
4 | Fc1ccc(C(OCCN2CCC3CCC(C2)N3C/C=C/c2ccco2)c2ccc(F)cc2)cc1 (stereo not drawn) | 13.3 µM
5 | O=c1c2nc3ccccc3c(=O)n2ncn1-c1ccccc1Cl | > 100 µM
6 | CC(=O)OCC1OC(OC2CC3C(C)(C)C(OC(C)=O)CC[C@]3(C)C3CCC45CC4(CCC5[C@@H](C)C[C@H](O)C(O)C(C)(C)O)[C@]23C)C(O)C(O)C1O (stereo partly drawn) | > 10 µM

The compounds below were run on DU-145 prostate (assay: growth of human tumour cells (NCI), 48 h).

Row | Structure (SMILES) | TGI
7 | Cc1nn(-c2ccccc2)c(C)c1/C=N/N=C1\SCC(=O)N1c1ccccc1 | > 100 µM
8 | OCC(O)C(Cl)CCl (stereo not drawn) | > 100 µM
9 | O=C1NCc2ccccc2S(=O)(=O)n2cccc21 | > 100 µM
10 | O=C(/C=C/c1ccccc1)NNC(=O)c1c(Cl)c(Cl)c(Cl)c(Cl)c1-c1nc2ccccc2[nH]1 | > 100 µM
11 | Fc1ccc(C(OCCN2CCC3CCC(C2)N3C/C=C/c2ccco2)c2ccc(F)cc2)cc1 (stereo not drawn) | 34.6 µM
12 | O=c1c2nc3ccccc3c(=O)n2ncn1-c1ccccc1Cl | > 100 µM
13 | CC(=O)OCC1OC(OC2CC3C(C)(C)C(OC(C)=O)CC[C@]3(C)C3CCC45CC4(CCC5[C@@H](C)C[C@H](O)C(O)C(C)(C)O)[C@]23C)C(O)C(O)C1O (stereo partly drawn) | > 10 µM

These compounds were tested on EKVX NSCLC (assay: growth of human tumour cells (NCI), 48 h).

Row | Structure (SMILES) | TGI
14 | Cc1nn(-c2ccccc2)c(C)c1/C=N/N=C1\SCC(=O)N1c1ccccc1 | 47.1 µM
15 | OCC(O)C(Cl)CCl (stereo not drawn) | > 100 µM
16 | O=C1NCc2ccccc2S(=O)(=O)n2cccc21 | > 100 µM
17 | O=C(/C=C/c1ccccc1)NNC(=O)c1c(Cl)c(Cl)c(Cl)c(Cl)c1-c1nc2ccccc2[nH]1 | > 100 µM
18 | O=c1c2nc3ccccc3c(=O)n2ncn1-c1ccccc1Cl | > 100 µM
19 | CC(=O)OCC1OC(OC2CC3C(C)(C)C(OC(C)=O)CC[C@]3(C)C3CCC45CC4(CCC5[C@@H](C)C[C@H](O)C(O)C(C)(C)O)[C@]23C)C(O)C(O)C1O (stereo partly drawn) | > 10 µM

What follows are compounds tested on HCC-2998 colon (assay: growth of human tumour cells (NCI), 48 h).

Row | Structure (SMILES) | TGI
20 | Cc1nn(-c2ccccc2)c(C)c1/C=N/N=C1\SCC(=O)N1c1ccccc1 | 52.8 µM
21 | OCC(O)C(Cl)CCl (stereo not drawn) | > 100 µM
22 | O=C1NCc2ccccc2S(=O)(=O)n2cccc21 | > 100 µM
23 | O=C(/C=C/c1ccccc1)NNC(=O)c1c(Cl)c(Cl)c(Cl)c(Cl)c1-c1nc2ccccc2[nH]1 | 65.9 µM
24 | Fc1ccc(C(OCCN2CCC3CCC(C2)N3C/C=C/c2ccco2)c2ccc(F)cc2)cc1 (stereo not drawn) | 18.4 µM
25 | O=c1c2nc3ccccc3c(=O)n2ncn1-c1ccccc1Cl | > 100 µM
26 | CC(=O)OCC1OC(OC2CC3C(C)(C)C(OC(C)=O)CC[C@]3(C)C3CCC45CC4(CCC5[C@@H](C)C[C@H](O)C(O)C(C)(C)O)[C@]23C)C(O)C(O)C1O (stereo partly drawn) | > 10 µM

These compounds were tested on HCT-116 colon (assay: growth of human tumour cells (NCI), 48 h).

Row | Structure (SMILES) | TGI
27 | Cc1nn(-c2ccccc2)c(C)c1/C=N/N=C1\SCC(=O)N1c1ccccc1 | 36.5 µM
28 | OCC(O)C(Cl)CCl (stereo not drawn) | > 100 µM
29 | O=C1NCc2ccccc2S(=O)(=O)n2cccc21 | > 100 µM
30 | O=C(/C=C/c1ccccc1)NNC(=O)c1c(Cl)c(Cl)c(Cl)c(Cl)c1-c1nc2ccccc2[nH]1 | 53.6 µM
31 | Fc1ccc(C(OCCN2CCC3CCC(C2)N3C/C=C/c2ccco2)c2ccc(F)cc2)cc1 (stereo not drawn) | 18.5 µM
32 | O=c1c2nc3ccccc3c(=O)n2ncn1-c1ccccc1Cl | > 100 µM
33 | CC(=O)OCC1OC(OC2CC3C(C)(C)C(OC(C)=O)CC[C@]3(C)C3CCC45CC4(CCC5[C@@H](C)C[C@H](O)C(O)C(C)(C)O)[C@]23C)C(O)C(O)C1O (stereo partly drawn) | > 10 µM

The compounds below were run on HCT-15 colon (assay: growth of human tumour cells (NCI), 48 h).

Row | Structure (SMILES) | TGI
34 | Cc1nn(-c2ccccc2)c(C)c1/C=N/N=C1\SCC(=O)N1c1ccccc1 | 63.6 µM
35 | OCC(O)C(Cl)CCl (stereo not drawn) | > 100 µM
36 | O=C1NCc2ccccc2S(=O)(=O)n2cccc21 | > 100 µM
37 | O=C(/C=C/c1ccccc1)NNC(=O)c1c(Cl)c(Cl)c(Cl)c(Cl)c1-c1nc2ccccc2[nH]1 | 90.7 µM
38 | Fc1ccc(C(OCCN2CCC3CCC(C2)N3C/C=C/c2ccco2)c2ccc(F)cc2)cc1 (stereo not drawn) | 18.6 µM
39 | O=c1c2nc3ccccc3c(=O)n2ncn1-c1ccccc1Cl | > 100 µM
40 | CC(=O)OCC1OC(OC2CC3C(C)(C)C(OC(C)=O)CC[C@]3(C)C3CCC45CC4(CCC5[C@@H](C)C[C@H](O)C(O)C(C)(C)O)[C@]23C)C(O)C(O)C1O (stereo partly drawn) | > 10 µM

The compounds below were run on HL-60(TB) leukemia (assay: growth of human tumour cells (NCI), 48 h).

Row | Structure (SMILES) | TGI
41 | Cc1nn(-c2ccccc2)c(C)c1/C=N/N=C1\SCC(=O)N1c1ccccc1 | 82.2 µM
42 | OCC(O)C(Cl)CCl (stereo not drawn) | > 100 µM
43 | O=C1NCc2ccccc2S(=O)(=O)n2cccc21 | > 100 µM
44 | O=C(/C=C/c1ccccc1)NNC(=O)c1c(Cl)c(Cl)c(Cl)c(Cl)c1-c1nc2ccccc2[nH]1 | 50.7 µM
45 | O=c1c2nc3ccccc3c(=O)n2ncn1-c1ccccc1Cl | > 100 µM
46 | CC(=O)OCC1OC(OC2CC3C(C)(C)C(OC(C)=O)CC[C@]3(C)C3CCC45CC4(CCC5[C@@H](C)C[C@H](O)C(O)C(C)(C)O)[C@]23C)C(O)C(O)C1O (stereo partly drawn) | > 10 µM

These compounds were tested on HOP-62 NSCLC (assay: growth of human tumour cells (NCI), 48 h).

Row | Structure (SMILES) | TGI
47 | Cc1nn(-c2ccccc2)c(C)c1/C=N/N=C1\SCC(=O)N1c1ccccc1 | 86.8 µM
48 | OCC(O)C(Cl)CCl (stereo not drawn) | > 100 µM
